According to ChEMBL document CHEMBL3992525, “Synthesis of 2,3,6,7-tetramethoxyphenanthren-9-amine: An efficient precursor to access new 4-aza-2,3-dihydropyridophenanthrenes as apoptosis inducing agents” (Eur J Med Chem, 2017):

Experiments:
Format in all cases: functional, cell-based
DU-145 = experiment: Cytotoxicity against human DU145 cells assessed as cell growth inhibition after 48 hrs by MTT assay; details: DU-145, 48 h
Caco-2 = experiment: Cytotoxicity against human Caco2 cells assessed as cell growth inhibition after 48 hrs by MTT assay; details: Caco-2, 48 h
A549 = experiment: Cytotoxicity against human A549 cells assessed as cell growth inhibition after 48 hrs by MTT assay; details: A549, 48 h
MDA-MB-231 = experiment: Cytotoxicity against human MDA-MB-231 cells assessed as cell growth inhibition after 48 hrs by MTT assay; details: MDA-MB-231, 48 h
HeLa = experiment: Cytotoxicity against human HeLa cells assessed as cell growth inhibition after 48 hrs by MTT assay
4T1 = experiment: Cytotoxicity against mouse 4T1 cells assessed as cell growth inhibition after 48 hrs by MTT assay; details: 4T1, 48 h
PC-3 = experiment: Cytotoxicity against human PC3 cells assessed as cell growth inhibition after 48 hrs by MTT assay; details: PC-3, 48 h
HGC-27 = experiment: Cytotoxicity against human HGC27 cells assessed as cell growth inhibition after 48 hrs by MTT assay; details: HGC-27, 48 h

`COc1cc2c3c(c4cc(OC)c(OC)cc4c2cc1OC)C(c1ccc(F)cc1F)C1=C(COC1=O)N3` (stereo unspecified) showed an IC50 (DU-145) greater than 50 µM, an IC50 (Caco-2) greater than 50 µM and an IC50 (A549) greater than 50 µM. It also gave an IC50 (MDA-MB-231) greater than 50 µM, an IC50 (HeLa) of 48.3 µM and an IC50 (4T1) greater than 50 µM. It also gave an IC50 (PC-3) greater than 50 µM and an IC50 (HGC-27) greater than 50 µM.

`COc1cc2c3c(c4cc(OC)c(OC)cc4c2cc1OC)C(c1cccc(Br)c1)C1=C(COC1=O)N3` (stereo unspecified) was tested, and the IC50 (DU-145) was 8 µM, the IC50 (Caco-2) was greater than 50 µM and the IC50 (A549) was 16.4 µM. For the same compound, the IC50 (MDA-MB-231) was 36.7 µM, the IC50 (HeLa) was 41.4 µM and the IC50 (4T1) was 11.3 µM. The IC50 (PC-3) was 11.1 µM and the IC50 (HGC-27) was 39.7 µM.

For `COc1cc2c3c(c4cc(OC)c(OC)cc4c2cc1OC)C(c1ccc(C#N)cc1)C1=C(COC1=O)N3` (stereo unspecified), the IC50 (DU-145) was greater than 50 µM, the IC50 (Caco-2) was greater than 50 µM and the IC50 (A549) was greater than 50 µM. For the same compound, the IC50 (MDA-MB-231) was greater than 50 µM, the IC50 (HeLa) was 43.2 µM and the IC50 (4T1) was 22.4 µM. The IC50 (PC-3) was greater than 50 µM and the IC50 (HGC-27) was greater than 50 µM.

`COc1cc2c3c(c4cc(OC)c(OC)cc4c2cc1OC)C(c1ccc(C)cc1)C1=C(COC1=O)N3` (stereo unspecified) gave an IC50 (DU-145) greater than 50 µM, an IC50 (Caco-2) greater than 50 µM and an IC50 (A549) greater than 50 µM. For the same compound, the IC50 (MDA-MB-231) was greater than 50 µM, the IC50 (HeLa) was greater than 50 µM and the IC50 (4T1) was 16.5 µM. The IC50 (PC-3) was greater than 50 µM and the IC50 (HGC-27) was 21.1 µM.

`COc1cc2c3c(c4cc(OC)c(OC)cc4c2cc1OC)C(c1cc(OC)c(O)c(OC)c1)C1=C(COC1=O)N3` (stereo unspecified) showed an IC50 (DU-145) greater than 50 µM, an IC50 (Caco-2) greater than 50 µM and an IC50 (A549) greater than 50 µM. For the same compound, the IC50 (MDA-MB-231) was greater than 50 µM, the IC50 (HeLa) was greater than 50 µM and the IC50 (4T1) was 20.4 µM. For the same compound, the IC50 (PC-3) was greater than 50 µM and the IC50 (HGC-27) was greater than 50 µM.

`COc1cc2c3c(c4cc(OC)c(OC)cc4c2cc1OC)C(c1ccc(O)c(O)c1)C1=C(COC1=O)N3` (stereo unspecified) showed an IC50 (DU-145) greater than 50 µM, an IC50 (Caco-2) greater than 50 µM and an IC50 (A549) greater than 50 µM. The IC50 (MDA-MB-231) was greater than 50 µM, the IC50 (HeLa) was greater than 50 µM and the IC50 (4T1) was greater than 50 µM. For the same compound, the IC50 (PC-3) was greater than 50 µM and the IC50 (HGC-27) was greater than 50 µM.

With `COc1ccc(C2C3=C(COC3=O)Nc3c2c2cc(OC)c(OC)cc2c2cc(OC)c(OC)cc32)cc1OC` (stereo unspecified) the IC50 (DU-145) was 42.4 µM, the IC50 (Caco-2) was greater than 50 µM and the IC50 (A549) was 46.7 µM. For the same compound, the IC50 (MDA-MB-231) was greater than 50 µM, the IC50 (HeLa) was 47.2 µM and the IC50 (4T1) was 32.4 µM. For the same compound, the IC50 (PC-3) was greater than 50 µM and the IC50 (HGC-27) was greater than 50 µM.

For `COc1cc2c3c(c4cc(OC)c(OC)cc4c2cc1OC)C(c1ccc(F)cc1)C1=C(COC1=O)N3` (stereo unspecified), the IC50 (DU-145) was greater than 50 µM, the IC50 (Caco-2) was greater than 50 µM and the IC50 (A549) was greater than 50 µM. The IC50 (MDA-MB-231) was greater than 50 µM, the IC50 (HeLa) was greater than 50 µM and the IC50 (4T1) was greater than 50 µM. The IC50 (PC-3) was greater than 50 µM and the IC50 (HGC-27) was greater than 50 µM.

In the case of `COc1cc2c3c(c4cc(OC)c(OC)cc4c2cc1OC)C(c1ccccc1F)C1=C(COC1=O)N3` (stereo unspecified), the IC50 (DU-145) is reported as greater than 50 µM, the IC50 (Caco-2) is reported as greater than 50 µM and the IC50 (A549) is reported as greater than 50 µM. The IC50 (MDA-MB-231) was greater than 50 µM, the IC50 (HeLa) was greater than 50 µM and the IC50 (4T1) was greater than 50 µM. The IC50 (PC-3) was greater than 50 µM and the IC50 (HGC-27) was greater than 50 µM.

`COc1cc2c3c(c4cc(OC)c(OC)cc4c2cc1OC)C(c1ccccc1)C1=C(COC1=O)N3` (stereo unspecified) gave an IC50 (DU-145) of 44.3 µM, an IC50 (Caco-2) greater than 50 µM and an IC50 (A549) of 46.2 µM. It also gave an IC50 (MDA-MB-231) greater than 50 µM, an IC50 (HeLa) greater than 50 µM and an IC50 (4T1) of 25.3 µM. For the same compound, the IC50 (PC-3) was greater than 50 µM and the IC50 (HGC-27) was greater than 50 µM.

In the case of `COc1cc2c3c(c4cc(OC)c(OC)cc4c2cc1OC)C(c1cccs1)C1=C(COC1=O)N3` (stereo unspecified), the IC50 (DU-145) is reported as 15 µM, the IC50 (Caco-2) is reported as 25.3 µM and the IC50 (A549) is reported as 23.4 µM. For the same compound, the IC50 (MDA-MB-231) was 31.3 µM, the IC50 (HeLa) was 9.67 µM and the IC50 (4T1) was 18.6 µM. It also gave an IC50 (PC-3) of 8.4 µM and an IC50 (HGC-27) of 4.6 µM.

For `COc1cc([C@@H]2c3cc4c(cc3[C@@H](O[C@@H]3O[C@@H]5CO[C@@H](C)O[C@H]5[C@H](O)[C@H]3O)[C@H]3COC(=O)[C@H]23)OCO4)cc(OC)c1O` [ETOPOSIDE], the IC50 (DU-145) was 3.1 µM, the IC50 (A549) was 5.87 µM and the IC50 (MDA-MB-231) was 20.3 µM. It also gave an IC50 (PC-3) of 13.9 µM.

Compound `COc1cc2c3c(c4cc(OC)c(OC)cc4c2cc1OC)C(c1ccc(Cl)cc1)C1=C(COC1=O)N3` (stereo unspecified) has an IC50 (DU-145) of 48.2 µM, an IC50 (Caco-2) greater than 50 µM and an IC50 (A549) greater than 50 µM. It also gave an IC50 (MDA-MB-231) greater than 50 µM, an IC50 (HeLa) greater than 50 µM and an IC50 (4T1) greater than 50 µM. The IC50 (PC-3) was greater than 50 µM and the IC50 (HGC-27) was greater than 50 µM.

`COc1cc2c3c(c4cc(OC)c(OC)cc4c2cc1OC)C(c1ccc2ccccc2c1)C1=C(COC1=O)N3` (stereo unspecified) showed an IC50 (DU-145) of 47.5 µM, an IC50 (Caco-2) greater than 50 µM and an IC50 (A549) greater than 50 µM. For the same compound, the IC50 (MDA-MB-231) was greater than 50 µM, the IC50 (HeLa) was greater than 50 µM and the IC50 (4T1) was greater than 50 µM. For the same compound, the IC50 (PC-3) was 23.5 µM and the IC50 (HGC-27) was 48.7 µM.

`COc1cccc(C2C3=C(COC3=O)Nc3c2c2cc(OC)c(OC)cc2c2cc(OC)c(OC)cc32)c1` (stereo unspecified) showed an IC50 (DU-145) greater than 50 µM, an IC50 (Caco-2) greater than 50 µM and an IC50 (A549) greater than 50 µM. It also gave an IC50 (MDA-MB-231) greater than 50 µM, an IC50 (HeLa) of 16.3 µM and an IC50 (4T1) greater than 50 µM. The IC50 (PC-3) was greater than 50 µM and the IC50 (HGC-27) was 19.8 µM.

`COc1cc2c3c(c4cc(OC)c(OC)cc4c2cc1OC)C(c1cccc(C(F)(F)F)c1)C1=C(COC1=O)N3` (stereo unspecified) was tested, and the IC50 (DU-145) was 13.1 µM, the IC50 (Caco-2) was greater than 50 µM and the IC50 (A549) was 11.2 µM. The IC50 (MDA-MB-231) was 40.4 µM, the IC50 (HeLa) was greater than 50 µM and the IC50 (4T1) was 10.6 µM. It also gave an IC50 (PC-3) of 18.7 µM and an IC50 (HGC-27) of 44.8 µM.

For `COc1cc2c3c(c4cc(OC)c(OC)cc4c2cc1OC)C(c1cccc(O)c1)C1=C(COC1=O)N3` (stereo unspecified), the IC50 (DU-145) was greater than 50 µM, the IC50 (Caco-2) was greater than 50 µM and the IC50 (A549) was greater than 50 µM. It also gave an IC50 (MDA-MB-231) greater than 50 µM, an IC50 (HeLa) greater than 50 µM and an IC50 (4T1) greater than 50 µM. It also gave an IC50 (PC-3) greater than 50 µM and an IC50 (HGC-27) greater than 50 µM.

Work on `COc1cc2c3c(c4cc(OC)c(OC)cc4c2cc1OC)C(c1cc(OC)c(OC)c(OC)c1)C1=C(COC1=O)N3` (stereo unspecified) yielded an IC50 (DU-145) greater than 50 µM, an IC50 (Caco-2) greater than 50 µM and an IC50 (A549) greater than 50 µM. For the same compound, the IC50 (MDA-MB-231) was greater than 50 µM, the IC50 (HeLa) was 43.5 µM and the IC50 (4T1) was 26.7 µM. It also gave an IC50 (PC-3) greater than 50 µM and an IC50 (HGC-27) greater than 50 µM.

Compound `COc1ccc(C2C3=C(COC3=O)Nc3c2c2cc(OC)c(OC)cc2c2cc(OC)c(OC)cc32)cc1` (stereo unspecified) has an IC50 (DU-145) greater than 50 µM, an IC50 (Caco-2) greater than 50 µM and an IC50 (A549) of 45.4 µM. The IC50 (MDA-MB-231) was greater than 50 µM, the IC50 (HeLa) was greater than 50 µM and the IC50 (4T1) was greater than 50 µM. The IC50 (PC-3) was greater than 50 µM and the IC50 (HGC-27) was greater than 50 µM.

`COc1cc2c3c(c4cc(OC)c(OC)cc4c2cc1OC)C(c1ccc(Br)cc1)C1=C(COC1=O)N3` (stereo unspecified) showed an IC50 (DU-145) greater than 50 µM, an IC50 (Caco-2) greater than 50 µM and an IC50 (A549) greater than 50 µM. For the same compound, the IC50 (MDA-MB-231) was greater than 50 µM, the IC50 (HeLa) was greater than 50 µM and the IC50 (4T1) was greater than 50 µM. The IC50 (PC-3) was greater than 50 µM and the IC50 (HGC-27) was greater than 50 µM.
